The compounds below were run against T1, human GPBAR1 receptor (Homo sapiens, UniProt Q8TDU6) (assay: functional cAMP assay in CHO-dhfr(minus) cells expressing human GPBAR1 receptors). Settings: functional cAMP assay, 30 min at 30° C., read-out: human EC50.
T1 construct: expressed in transfected cells
T1 sequence (Q8TDU6 1-330): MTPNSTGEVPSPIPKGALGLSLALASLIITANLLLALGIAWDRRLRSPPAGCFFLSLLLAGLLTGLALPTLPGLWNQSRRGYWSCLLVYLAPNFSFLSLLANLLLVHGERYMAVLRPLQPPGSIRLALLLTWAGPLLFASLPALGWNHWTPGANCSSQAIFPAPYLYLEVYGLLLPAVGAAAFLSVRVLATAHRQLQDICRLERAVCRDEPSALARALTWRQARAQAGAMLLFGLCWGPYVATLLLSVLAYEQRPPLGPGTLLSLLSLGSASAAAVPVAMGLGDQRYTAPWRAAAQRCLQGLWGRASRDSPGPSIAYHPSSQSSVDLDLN
Format: cell-based
In short: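 Agonist cAMP read-out: stable GPBAR1 CHO-dhfr− clone, 30 min compound exposure at 30° C following 30 min IBMX (1 mM) preincubation in Krebs Ringer bicarbonate. Time-resolved energy-transfer detection gives EC50; parental CHO cells serve as counter-screen.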

EC50 | Structure (SMILES)
355 nM | CS(=O)(=O)c1cccc(-c2ccc(C(C/C(=N\O)c3ccncc3)c3ccccc3)cc2)c1 (centres unmarked) [Example 19, (E)-3-(3′-Methanesulfonyl-biphenyl-4-yl)-3-phenyl-1-pyridin-4-yl-propan-1-one oxime]

Same assay, conditions: human EC50, functional cAMP assay, 30 min at 30° C.

EC50 | Structure (SMILES)
320 nM | Cc1ccccc1C(C/C(=N\O)c1ccc(=O)n(C)c1)c1ccc(C(=O)N[C@@H](C)CO)cc1 (stereo partly drawn) [Example 302, 4-((E)-3-(Hydroxyimino)-3-(1-methyl-6-oxo-1,6-dihydropyridin-3-yl)-1-o-tolylpropyl)-N—((S)-1-hydroxypropan-2-yl)benzamide]
9 nM | Cc1cc(/C(C[C@@H](c2ccc(-c3ccc(C(=O)O)c(F)c3)cc2)c2ccc(Cl)cc2F)=N/O)ccn1 (single isomer, unassigned) [Example 449, 4′-[(+)-1-(4-Chloro-2-fluoro-phenyl)-3-[(E)-hydroxyimino]-3-(2-methyl-pyridin-4-yl)-propyl]-3-fluoro-biphenyl-4-carboxylic acid]
233 nM | Cc1cc(/C(C[C@@H](c2ccc(O)cc2)c2ccc(Cl)cc2C)=N/O)ccn1 [Example 365, (S)-3-(4-Chloro-2-methyl-phenyl)-3-(4-hydroxy-phenyl)-1-(2-methyl-pyridin-4-yl)-propan-1-one oxime]
634 nM | Cc1ccccc1[C@H](C/C(=N\O)c1ccc(=O)n(C)c1)c1ccc(C2CCN(C(=O)OC(C)(C)C)CC2)cc1 [Example 506, (R,E)-tert-Butyl 4-(4-(3-(hydroxyimino)-3-(1-methyl-6-oxo-1,6-dihydropyridin-3-yl)-1-o-tolylpropyl)phenyl)piperidine-1-carboxylate]
12 nM | Cc1ccccc1[C@H](C/C(=N\O)c1cc(F)ncc1Cl)c1ccc(-c2ccc(C(=O)O)cc2)cc1 [Example 293, 4′-{(R)-3-(5-Chloro-2-fluoro-pyridin-4-yl)-3-[(E)-hydroxyimino]-1-o-tolyl-propyl}-biphenyl-4-carboxylic acid]
30 nM | Cn1cc(/C(CC(c2ccc(S(C)(=O)=O)cc2)c2ccccc2Cl)=N/O)ccc1=O (centres unmarked) [Example 249, (E)-5-(3-(2-Chlorophenyl)-1-(hydroxyimino)-3-(4-(methylsulfonyl)phenyl)propyl)-1-methylpyridin-2(1H)-one]
612 nM | Cc1ccccc1[C@@H](C/C(=N\O)c1ccc(=O)n(C)c1)c1ccc([C@H]2CC[C@H](C(=O)O)CC2)cc1 [Example 488, Trans-4-(4-((S,E)-3-(Hydroxyimino)-3-(1-methyl-6-oxo-1,6-dihydropyridin-3-yl)-1-o-tolylpropyl)phenyl)cyclohexanecarboxylic acid]
118 nM | Cc1ccc(C(C/C(=N\O)c2ccc(=O)n(C)c2)c2ccc(Br)cc2)c(F)c1 (centres unmarked) [Example 408, (E)-5-(3-(4-bromophenyl)-3-(2-fluoro-4-methylphenyl)-1-(hydroxyimino)propyl)-1-methylpyridin-2(1H)-one]
137 nM | Cc1cc(Cl)ccc1C(C/C(=N\O)c1ccc(=O)n(C)c1)c1ccc(Oc2ccc(Cl)c(C(=O)O)c2)c(F)c1 (centres unmarked) [Example 326, 2-Chloro-5-{4-[1-(4-chloro-2-methyl-phenyl)-3-[(E)-hydroxyimino]-3-(1-methyl-6-oxo-1,6-dihydro-pyridin-3-yl)-propyl]-2-fluoro-phenoxy}-benzoic acid]
270 nM | COC(=O)c1ccc(-c2ccc(C(C/C(=N\O)c3ccnc(C)c3)c3ccc(Cl)cc3F)cc2)cc1OC (centres unmarked) [Example 454, 4′-[1-(4-Chloro-2-fluoro-phenyl)-3-[(E)-hydroxyimino]-3-(2-methyl-pyridin-4-yl)-propyl]-3-methoxy-biphenyl-4-carboxylic acid methyl ester]
4760 nM | Cc1ccccc1C(C/C(=N\O)c1ccc(=O)n(C)c1)c1ccc(C(=O)O)cc1 (centres unmarked) [Example 360, 4-[3-[(E)-Hydroxyimino]-3-(1-methyl-6-oxo-1,6-dihydro-pyridin-3-yl)-1-o-tolyl-propyl]-benzoic acid]
2 nM | Cc1cc(/C(C[C@H](c2ccc(N3CCC(C(=O)O)CC3)cc2)c2ccc(Cl)cc2C)=N/O)ccn1 [Example 284, 1-{4-[(R)-1-(4-Chloro-2-methyl-phenyl)-3-[(E)-hydroxyimino]-3-(2-methyl-pyridin-4-yl)-propyl]-phenyl}-piperidine-4-carboxylic acid]
266 nM | Cn1cc(/C(CC(c2ccc(C(=O)NCCS(C)(=O)=O)cc2)c2ccc(Cl)cc2F)=N/O)ccc1=O (centres unmarked) [Example 313, 4-[1-(4-Chloro-2-fluoro-phenyl)-3-[(E)-hydroxyimino]-3-(1-methyl-6-oxo-1,6-dihydro-pyridin-3-yl)-propyl]-N-(2-methanesulfonyl-ethyl)-benzamide]
186 nM | Cc1cc(Cl)ccc1C(C/C(=N\O)c1ccc(=O)n(CCC(N)=O)c1)c1ccc(S(C)(=O)=O)cc1 (centres unmarked) [Example 344, (E)-3-(5-(3-(4-Chloro-2-methylphenyl)-1-(hydroxyimino)-3-(4-(methylsulfonyl)phenyl)-propyl)-2-oxopyridin-1(2H)-yl)propanamide]
9640 nM | Cn1cc(/C(CC(c2ccccc2Cl)C2CC[N+](C)(C)CC2)=N/O)ccc1=O (centres unmarked) [Example 198, 4-[1-(2-Chloro-phenyl)-3-[(E)-hydroxyimino]-3-(1-methyl-6-oxo-1,6-dihydro-pyridin-3-yl)-propyl]-1,1-dimethyl-piperidinium iodide]
666 nM | Cc1ccccc1[C@H](C/C(=N\O)c1ccc(=O)n(C)c1)c1ccc(CC(=O)O)cc1 [Example 493, (R,E)-2-(4-(3-(Hydroxyimino)-3-(1-methyl-6-oxo-1,6-dihydropyridin-3-yl)-1-o-tolylpropyl)phenyl)acetic acid]
20 nM | Cn1cc(/C(CC(c2ccc(Br)cc2)c2ccccc2F)=N/O)ccc1=O (centres unmarked) [Example 243, (E)-5-(3-(4-Bromophenyl)-3-(2-fluorophenyl)-1-(hydroxyimino)propyl)-1-methylpyridin-2(1H)-one]

The next lines start with the compound.

Structure (SMILES) | EC50
Cc1cc(/C(CC(c2cccc(-c3ccc(C(=O)O)cc3)c2)c2ccccc2C)=N/O)ccn1 (centres unmarked) [Example 103, (E)-3′-[3-[Hydroxyimino]-3-(2-methyl-pyridin-4-yl)-1-o-tolyl-propyl]-biphenyl-4-carboxylic acid] | 589 nM
CCCC(C/C(=N\O)c1ccc(=O)n(C)c1)c1ccc(Br)cc1 (centres unmarked) [Example 174, 5-{3-(4-Bromo-phenyl)-1-[(E)-hydroxyimino]-hexyl}-1-methyl-1H-pyridin-2-one] | 268 nM
Cc1cc(/C(CC(c2ccc(Br)cc2)c2ccc(F)cc2C)=N/O)ccn1 (centres unmarked) [Example 140, (E)-3-(4-Bromophenyl)-3-(4-fluoro-2-methylphenyl)-1-(2-methylpyridin-4-yl)propan-1-one oxime] | 12 nM
[O-][n+]1ccc(/C(CC(c2ccccc2)c2ccc(Br)cc2)=N/O)cc1 (centres unmarked) [Example 15, (E)-3-(4-Bromo-phenyl)-1-(1-oxy-pyridin-4-yl)-3-phenyl-propan-1-one oxime] | 206 nM
Cc1cc(/C(CC(c2ccc(Br)cc2)c2ccc(Cl)cc2C)=N/O)ccn1 (centres unmarked) [Example 138, (E)-3-(4-Bromophenyl)-3-(4-chloro-2-methylphenyl)-1-(2-methylpyridin-4-yl)propan-1-one oxime] | 155 nM
Cc1cc(C(CC(c2ccccc2)c2ccccc2)=NO)ccn1 (racemic) [Example 57, 1-(2-Methyl-pyridin-4-yl)-3,3-diphenyl-propan-1-one oxime] | 73 nM
Cc1ccccc1C(CC(=NO)c1ccncc1)c1ccc(-c2cccc(S(C)(=O)=O)c2)cc1 (racemic) [Example 32, 3-(3′-Methanesulfonyl-biphenyl-4-yl)-1-pyridin-4-yl-3-o-tolyl-propan-1-one oxime] | 255 nM
Cc1ccccc1C(C/C(=N\O)c1ccncc1)c1ccc(-c2cncnc2)cc1 (single isomer, unassigned; (+)) [Example 35, (+)-(E)-1-Pyridin-4-yl-3-(4-pyrimidin-5-yl-phenyl)-3-o-tolyl-propan-1-one oxime] | 67 nM
Cc1ccccc1C(CC(=NO)c1ccncc1)c1ccc(-c2cncnc2)cc1 (racemic) [Example 34, 1-Pyridin-4-yl-3-(4-pyrimidin-5-yl-phenyl)-3-o-tolyl-propan-1-one oxime] | 14 nM
Cc1cc(/C(CC(c2ccc(-c3ccc(S(C)(=O)=O)cc3)cc2)c2ccccc2C(F)(F)F)=N/O)ccn1 (centres unmarked) [Example 133, (E)-3-(4′-Methanesulfonyl-biphenyl-4-yl)-1-(2-methyl-pyridin-4-yl)-3-(2-trifluoromethyl-phenyl)-propan-1-one oxime] | 114 nM
Cc1cc(/C(CC(c2cccc(-c3cccc(C(=O)NCC(=O)O)c3)c2)c2ccccc2C)=N/O)ccn1 (centres unmarked) [Example 108, ({3′-[3-[(E)-Hydroxyimino]-3-(2-methyl-pyridin-4-yl)-1-o-tolyl-propyl]-biphenyl-3-carbonyl}-amino)-acetic acid] | 76 nM
O/N=C(\CC(c1ccccc1)c1cccc(Br)c1)c1ccncc1 (centres unmarked) [Example 12, (E)-3-(3-Bromo-phenyl)-3-phenyl-1-pyridin-4-yl-propan-1-one oxime] | 92 nM
Cc1ccccc1C(CC(=NO)c1ccncc1)c1cccc(C(=O)O)c1 (racemic) [Example 71, 3-{3-[Hydroxyimino]-3-pyridin-4-yl-1-o-tolyl-propyl}-benzoic acid] | 1620 nM
Cc1cc(C(CC(c2ccc(Br)cc2)C(C)(C)C)=NO)ccn1 (racemic) [Example 129, 3-(4-Bromo-phenyl)-4,4-dimethyl-1-(2-methyl-pyridin-4-yl)-pentan-1-one oxime] | 591 nM
